Experiment [1] has as its system glioblastoma brain cancer cell line LN-229. As to the kind of experiment: Cytotoxicity assay (CCK8 viability), LN-229. Type of experiment: cell-based. The settings on record: Homo sapiens, LN-229 cells, 18 hours drug incubation, 1% FBS media. As to the method:
(§1) Cytoxocity assay: Cells were seeded on a 96 well polystyrene plate in full serum media at a density of 75,000 cells per milliliter, 100 μL per well. Plates were incubated at 37° C. and 5% CO2 for 24 hours to allow cell attachment. Drug solutions were prepared in DMSO at 100× concentration and mixed 1:100 in 1% FBS media to yield the desired concentration. Drug-media mixtures were vortexed immediately prior to administration to cells. Full serum media was removed and replaced with drug-media mixtures and incubated for 18 hours. 10 μL of Cell Counting Kit 8 (CCK8, Dojindo# CK04-11) was added to each well to colormetrically assess viability. After 2-4 hours of incubation with the CCK8 dye, absorbance was read at 450 nm by a BioTek Synergy 2 plate reader.
(§2) The cytotoxicity of selected compounds against the glioblastoma brain cancer cell line LN-229 is depicted in Table 1.

In experiment [2] the test system is glioblastoma brain cancer cell line DBTRG05MG. The experiment is described as follows: Cytotoxicity assay (CCK8 viability), DBTRG05MG. The experiment is classed as cell-based. As to conditions: Homo sapiens, DBTRG-05MG, DBTRG05MG cells, 18 hours drug incubation, 1% FBS media. On the procedure: as §1, §2

What is called EC50 is the concentration that produces a half-maximal response.

Take `CC(C)(c1cc(O)c(-c2cc(Cl)cc(Cl)c2)c(O)n1)C1CCCCC1` [Compound 8b, 6-(2-Cyclohexylpropan-2-yl)-3-(3,5-dichlorophenyl)pyridine-2,4-diol]: the half-maximal effective concentration (EC50) in experiment [1] was determined as 5.9 µM; in experiment [2], 9.8 µM.
For `CCCCCCC(C)(C)c1cc(O)c(-c2ccccc2)c(O)n1` [Compound 8j, 6-(2-Methyloctan-2-yl)-3-phenylpyridine-2,4-diol], the EC50 in experiment [1] was 52.6 µM; in experiment [2], 55.7 µM.
As to `Cc1cccc(-c2c(O)cc(C(C)(C)C3CCCCC3)nc2O)c1` [Compound 8f, 6-(2-Cyclohexylpropan-2-yl)-3-m-tolylpyridine-2,4-diol], the half-maximal effective concentration (EC50) in experiment [1] worked out at 71.1 µM.
For the molecule `CCCCCCC(C)(C)c1nc(O)c(-c2cccc(C)c2)c(O)n1` [Compound 8h, 2-(2-Methyloctan-2-yl)-5-m-tolylpyrimidine-4,6-diol], the 50% effective concentration (EC50) in experiment [1] is 24.6 µM; in experiment [2], 29.2 µM.
Consider `CCCCCCC(C)(C)c1cc(O)c(-c2cc(Cl)cc(Cl)c2)c(O)n1` [Compound 8e, 3-(3,5-dichlorophenyl)-6-(2-methyloctan-2-yl)pyridine-2,4-diol], for which the EC50 in experiment [1] was found to be 1.6 µM; in experiment [2], 4.1 µM.
For `CCCCCCC(C)(C)c1cc(O)c(Cc2ccccc2)c(O)n1` [Compound 8n, 3-Benzyl-6-(2-methyloctan-2-yl)pyridine-2,4-diol], the EC50 worked out at 13.1 µM in experiment [1] and 25.2 µM in experiment [2].
For `CCCCCCC(C)(C)c1cc(O)c(-c2cccc(OC)c2)c(O)n1` [Compound 8m, 3-(3-Methoxyphenyl)-6-(2-methyloctan-2-yl)pyridine-2,4-diol], the EC50 in experiment [1] is 41.7 µM; in experiment [2], 56 µM.
The like results for `CC(C)(c1ccccc1)c1cc(O)c(-c2cc(Cl)cc(Cl)c2)c(O)n1` [Compound 8c, 3-(3,5-Dichlorophenyl)-6-(2-phenylpropan-2-yl)pyridine-2,4-diol] were, in that order, 29.2 µM and 33.6 µM.

Values taken from US8809373B2, “Pyridine non-classical cannabinoid compounds and related methods of use” (priority 2008, dated 2014).
